{
  "source": "patent US20100311714A1",
  "about": "“1H-IMIDAZO[4,5-c]QUINOLINONE COMPOUNDS” (priority 2009, published 2010)",
  "biological_target": "T1, PI3K alfa (Homo sapiens, UniProt P42336)",
  "T1 construct": "His tag (C); made in house; host or cells: baculovirus BV1075; Tn5 (Trichoplusia ni) or TiniPro insect cells",
  "T1 sequence (P42336 with tags, fused parts or gaps limits assumed)": "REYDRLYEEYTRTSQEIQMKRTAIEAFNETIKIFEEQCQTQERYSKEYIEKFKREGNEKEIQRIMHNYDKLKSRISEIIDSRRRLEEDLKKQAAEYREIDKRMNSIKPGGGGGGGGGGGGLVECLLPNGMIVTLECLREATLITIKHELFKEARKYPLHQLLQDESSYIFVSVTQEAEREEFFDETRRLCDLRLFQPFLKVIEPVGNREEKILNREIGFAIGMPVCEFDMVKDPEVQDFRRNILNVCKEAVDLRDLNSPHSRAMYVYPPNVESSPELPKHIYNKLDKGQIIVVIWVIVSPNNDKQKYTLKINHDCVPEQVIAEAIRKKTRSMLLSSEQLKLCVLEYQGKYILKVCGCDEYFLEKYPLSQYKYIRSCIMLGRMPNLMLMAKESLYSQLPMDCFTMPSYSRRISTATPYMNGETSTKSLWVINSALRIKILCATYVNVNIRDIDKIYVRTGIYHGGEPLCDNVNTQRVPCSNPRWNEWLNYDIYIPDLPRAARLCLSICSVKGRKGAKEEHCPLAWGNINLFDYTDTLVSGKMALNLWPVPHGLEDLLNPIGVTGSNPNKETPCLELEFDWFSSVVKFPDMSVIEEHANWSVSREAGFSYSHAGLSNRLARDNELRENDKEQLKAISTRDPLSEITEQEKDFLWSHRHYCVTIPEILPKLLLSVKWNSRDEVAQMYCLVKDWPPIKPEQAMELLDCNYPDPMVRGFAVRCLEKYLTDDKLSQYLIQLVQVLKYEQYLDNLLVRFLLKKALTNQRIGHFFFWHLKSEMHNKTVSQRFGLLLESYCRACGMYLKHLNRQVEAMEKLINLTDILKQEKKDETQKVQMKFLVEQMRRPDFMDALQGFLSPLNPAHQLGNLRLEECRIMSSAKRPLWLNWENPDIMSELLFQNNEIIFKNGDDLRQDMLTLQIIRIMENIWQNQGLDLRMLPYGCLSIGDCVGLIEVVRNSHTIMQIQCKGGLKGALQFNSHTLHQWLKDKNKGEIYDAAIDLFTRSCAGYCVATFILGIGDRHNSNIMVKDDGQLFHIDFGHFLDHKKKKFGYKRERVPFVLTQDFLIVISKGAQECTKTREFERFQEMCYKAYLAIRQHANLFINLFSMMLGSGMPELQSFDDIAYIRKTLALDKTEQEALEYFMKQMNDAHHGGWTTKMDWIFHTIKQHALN",
  "assay": "PI3K alpha kinase assay (Kinase-Glo luminescence)",
  "format": "biochemical",
  "procedure,_shortened": "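IC50 values come from a four-parameter logistic fit of percent inhibition at eight concentrations, typically 10 to 0.003 μM. Recombinant PI3Kα at 10 nM turned over 1 μM ATP with 10 μg/mL PI for 60 min at room temperature, and residual ATP was measured by Kinase-Glo.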",
  "note": "Like-named read-outs stand apart in the source and are kept apart here.",
  "data": [
    {"compound": "Cc1ncccc1-n1c(=O)n(C)c2cnc3ccc(-c4cnc5[nH]ccc5c4)cc3c21", "note": "[Example 2.8, 3-Methyl-1-(2-methyl-pyridin-3-yl)-8-(1H-pyrrolo[2,3-b]pyridin-5-yl)-1,3-dihydro-imidazo[4,5-c]quinolin-2-one]", "values": [
      {"measurement": "IC50", "setting": "read-out: PI3Kalfa/IC50", "value": 26, "unit": "nM"}
    ]},
    {"compound": "COc1cc(-c2ccc3ncc4c(c3c2)n(-c2ccc(N)nc2C)c(=O)n4C)cnc1CO", "note": "[Example 30.1, 1-(6-Amino-2-methyl-pyridin-3-yl)-8-(6-hydroxymethyl-5-methoxy-pyridin-3-yl)-3-methyl-1,3-dihydro-imidazo[4,5-c]quinolin-2-one]", "values": [
      {"measurement": "IC50", "setting": "read-out: EPK_PI3Kalfa/IC50", "value": 54, "unit": "nM"}
    ]},
    {"compound": "COc1cc(-c2ccc3ncc4c(c3c2)n(-c2ccc(N3CC(F)(F)C3)nc2C)c(=O)n4C)cnc1CO", "note": "[Example 24.4, 1-[6-(3,3-Difluoro-azetidin-1-yl)-2-methyl-pyridin-3-yl]-8-(6-hydroxymethyl-5-methoxy-pyridin-3-yl)-3-methyl-1,3-dihydro-imidazo[4,5-c]quinolin-2-one]", "values": [
      {"measurement": "IC50", "setting": "read-out: EPK_PI3Kalfa/IC50", "value": 56, "unit": "nM"}
    ]},
    {"compound": "CNc1ncc(-c2ccc3ncc4c(c3c2)n(-c2ccc(N3CC[C@@H](O)C3)nc2C)c(=O)n4C)cn1", "note": "[Example 34.1, 1-[6-((R)-3-Hydroxy-pyrrolidin-1-yl)-2-methyl-pyridin-3-yl]-3-methyl-8-(2-methylamino-pyrimidin-5-yl)-1,3-dihydro-imidazo[4,5-c]quinolin-2-one]", "values": [
      {"measurement": "IC50", "setting": "read-out: EPK_PI3Kalfa/IC50", "value": 97, "unit": "nM"}
    ]},
    {"compound": "CNc1ncc(-c2ccc3ncc4c(c3c2)n(-c2ccc(N3CC[C@H](O)C3)nc2C)c(=O)n4C)cc1Cl", "note": "[Example 32.4, 8-(5-Chloro-6-methylamino-pyridin-3-yl)-1-[6-((S)-3-hydroxy-pyrrolidin-1-yl)-2-methyl-pyridin-3-yl]-3-methyl-1,3-dihydro-imidazo[4,5-c]quinolin-2-one]", "values": [
      {"measurement": "IC50", "setting": "read-out: EPK_PI3Kalfa/IC50", "value": 18, "unit": "nM"}
    ]},
    {"compound": "CCNc1cc(-c2ccc3ncc4c(c3c2)n(-c2ccc(N3CCCC3)nc2C)c(=O)n4C)cnc1CO", "note": "[Example 25.5, 8-(5-Ethylamino-6-hydroxymethyl-pyridin-3-yl)-3-methyl-1-(2-methyl-6-pyrrolidin-1-yl-pyridin-3-yl)-1,3-dihydro-imidazo[4,5-c]quinolin-2-one]", "values": [
      {"measurement": "IC50", "setting": "read-out: EPK_PI3Kalfa/IC50", "value": 28, "unit": "nM"}
    ]},
    {"compound": "COc1ccc(-n2c(=O)n(C)c3cnc4ccc(-c5cnc(CO)c(OC)c5)cc4c32)c(OC)n1", "note": "[Example 8.14, 1-(2,6-Dimethoxy-pyridin-3-yl)-8-(6-hydroxymethyl-5-methoxy-pyridin-3-yl)-3-methyl-1,3-dihydro-imidazo[4,5-c]quinolin-2-one]", "values": [
      {"measurement": "IC50", "setting": "read-out: EPK_PI3Kalfa/IC50", "value": 59, "unit": "nM"}
    ]},
    {"compound": "Cc1nc(N2CCC(O)C2)ccc1-n1c(=O)n(C)c2cnc3ccc(-c4cncc(C(C)(C)O)c4)cc3c21", "note": "(stereo not shown) [Example 27.5, 8-[5-(1-Hydroxy-1-methyl-ethyl)-pyridin-3-yl]-1-[6-(3-hydroxy-pyrrolidin-1-yl)-2-methyl-pyridin-3-yl]-3-methyl-1,3-dihydro-imidazo[4,5-c]quinolin-2-one]", "values": [
      {"measurement": "IC50", "setting": "read-out: EPK_PI3Kalfa/IC50", "value": 10, "unit": "nM"}
    ]},
    {"compound": "Cn1c(=O)n(-c2cccnc2F)c2c3cc(-c4cnc5[nH]ccc5c4)ccc3ncc21", "note": "[Example 6.3, 1-(2-Fluoro-pyridin-3-yl)-3-methyl-8-(1H-pyrrolo[2,3-b]pyridin-5-yl)-1,3-dihydro-imidazo[4,5-c]quinolin-2-one]", "values": [
      {"measurement": "IC50", "setting": "read-out: PI3Kalfa/IC50", "value": 41, "unit": "nM"}
    ]},
    {"compound": "Cc1nc(N2CCC(O)C2)ccc1-n1c(=O)n(C)c2cnc3ccc(-c4cnc(N)c(C(F)(F)F)c4)cc3c21", "note": "(stereo not shown) [Example 27.3, 8-(6-Amino-5-trifluoromethyl-pyridin-3-yl)-1-[6-(3-hydroxy-pyrrolidin-1-yl)-2-methyl-pyridin-3-yl]-3-methyl-1,3-dihydro-imidazo[4,5-c]quinolin-2-one]", "values": [
      {"measurement": "IC50", "setting": "read-out: EPK_PI3Kalfa/IC50", "value": 5, "unit": "nM"}
    ]},
    {"compound": "COc1cc(-c2ccc3ncc4c(c3c2)n(-c2ccc(N3CC[C@H](O)C3)nc2C)c(=O)n4C)cnc1CO", "note": "[Example 32.7, 8-(6-Hydroxymethyl-5-methoxy-pyridin-3-yl)-1-[6-((S)-3-hydroxy-pyrrolidin-1-yl)-2-methyl-pyridin-3-yl]-3-methyl-1,3-dihydro-imidazo[4,5-c]quinolin-2-one]", "values": [
      {"measurement": "IC50", "setting": "read-out: EPK_PI3Kalfa/IC50", "value": 26, "unit": "nM"}
    ]},
    {"compound": "Cc1nc(F)ccc1-n1c(=O)n(C)c2cnc3ccc(-c4cncc(N5CCC5)c4)cc3c21", "note": "[Example 7.6, 8-(5-Azetidin-1-yl-pyridin-3-yl)-1-(6-fluoro-2-methyl-pyridin-3-yl)-3-methyl-1,3-dihydro-imidazo[4,5-c]quinolin-2-one]", "values": [
      {"measurement": "IC50", "setting": "read-out: EPK_PI3Kalfa/IC50", "value": 68, "unit": "nM"}
    ]},
    {"compound": "CCNc1cc(-c2ccc3ncc4c(c3c2)n(-c2ccc(N(C)CCO)nc2C)c(=O)n4C)cnc1CO", "note": "[Example 26.3, 8-(5-Ethylamino-6-hydroxymethyl-pyridin-3-yl)-1-{6-[(2-hydroxy-ethyl)-methyl-amino]-2-methyl-pyridin-3-yl}-3-methyl-1,3-dihydro-imidazo[4,5-c]quinolin-2-one]", "values": [
      {"measurement": "IC50", "setting": "read-out: EPK_PI3Kalfa/IC50", "value": 84, "unit": "nM"}
    ]},
    {"compound": "CCNc1cc(-c2ccc3ncc4c(c3c2)n(-c2ccc(N3CC(F)(F)C(F)(F)C3)nc2C)c(=O)n4C)cnc1CO", "note": "[Example 35.2, 8-(5-Ethylamino-6-hydroxymethyl-pyridin-3-yl)-3-methyl-1-[2-methyl-6-(3,3,4,4-tetrafluoro-pyrrolidin-1-yl)-pyridin-3-yl]-1,3-dihydro-imidazo[4,5-c]quinolin-2-one]", "values": [
      {"measurement": "IC50", "setting": "read-out: EPK_PI3Kalfa/IC50", "value": 27, "unit": "nM"}
    ]},
    {"compound": "COc1cc(-c2ccc3ncc4c(c3c2)n(-c2ccc(F)nc2C)c(=O)n4C)cnc1CO", "note": "[Example 7.10, 1-(6-Fluoro-2-methyl-pyridin-3-yl)-8-(6-hydroxymethyl-5-methoxy-pyridin-3-yl)-3-methyl-1,3-dihydro-imidazo[4,5-c]quinolin-2-one]", "values": [
      {"measurement": "IC50", "setting": "read-out: EPK_PI3Kalfa/IC50", "value": 24, "unit": "nM"}
    ]},
    {"compound": "COCc1ncc(-c2ccc3ncc4c(c3c2)n(-c2ccc(F)nc2C)c(=O)n4C)cc1OC", "note": "[Example 7.7, 1-(6-Fluoro-2-methyl-pyridin-3-yl)-8-(5-methoxy-6-methoxymethyl-pyridin-3-yl)-3-methyl-1,3-dihydro-imidazo[4,5-c]quinolin-2-one]", "values": [
      {"measurement": "IC50", "setting": "read-out: EPK_PI3Kalfa/IC50", "value": 127, "unit": "nM"}
    ]},
    {"compound": "COc1cc(-c2ccc3ncc4c(c3c2)n(-c2ccc(N3CCC(OC)C3)nc2C)c(=O)n4C)cnc1CO", "note": "(stereo not shown) [Example 28.3, 8-(6-Hydroxymethyl-5-methoxy-pyridin-3-yl)-1-[6-(3-methoxy-pyrrolidin-1-yl)-2-methyl-pyridin-3-yl]-3-methyl-1,3-dihydro-imidazo[4,5-c]quinolin-2-one]", "values": [
      {"measurement": "IC50", "setting": "read-out: EPK_PI3Kalfa/IC50", "value": 23, "unit": "nM"}
    ]},
    {"compound": "CNc1ncc(-c2ccc3ncc4c(c3c2)n(-c2ccc(N3CCC(OC)C3)nc2C)c(=O)n4C)cn1", "note": "(stereo not shown) [Example 28.2, 1-[6-(3-Methoxy-pyrrolidin-1-yl)-2-methyl-pyridin-3-yl]-3-methyl-8-(2-methylamino-pyrimidin-5-yl)-1,3-dihydro-imidazo[4,5-c]quinolin-2-one]", "values": [
      {"measurement": "IC50", "setting": "read-out: EPK_PI3Kalfa/IC50", "value": 34, "unit": "nM"}
    ]},
    {"compound": "COc1ccc(-n2c(=O)n(C)c3cnc4ccc(-c5cncc(N6CCC6)c5)cc4c32)c(OC)n1", "note": "[Example 8.11, 8-(5-Azetidin-1-yl-pyridin-3-yl)-1-(2,6-dimethoxy-pyridin-3-yl)-3-methyl-1,3-dihydro-imidazo[4,5-c]quinolin-2-one]", "values": [
      {"measurement": "IC50", "setting": "read-out: EPK_PI3Kalfa/IC50", "value": 365, "unit": "nM"}
    ]},
    {"compound": "Cc1nc(N2CC(O)C2)ccc1-n1c(=O)n(C)c2cnc3ccc(-c4cncc(C(C)(C)O)c4)cc3c21", "note": "[Example 29.1, 1-[6-(3-Hydroxy-azetidin-1-yl)-2-methyl-pyridin-3-yl]-8-[5-(1-hydroxy-1-methyl-ethyl)-pyridin-3-yl]-3-methyl-1,3-dihydro-imidazo[4,5-c]quinolin-2-one]", "values": [
      {"measurement": "IC50", "setting": "read-out: EPK_PI3Kalfa/IC50", "value": 19, "unit": "nM"}
    ]},
    {"compound": "CCOc1ccc(-c2ccc3ncc4c(c3c2)n(-c2ccc(N3CCC(O)C3)nc2C)c(=O)n4C)cn1", "note": "(stereo not shown) [Example 27.4, 8-(6-Ethoxy-pyridin-3-yl)-1-[6-(3-hydroxy-pyrrolidin-1-yl)-2-methyl-pyridin-3-yl]-3-methyl-1,3-dihydro-imidazo[4,5-c]quinolin-2-one]", "values": [
      {"measurement": "IC50", "setting": "read-out: EPK_PI3Kalfa/IC50", "value": 39, "unit": "nM"}
    ]},
    {"compound": "CNC(=O)c1ccc(-c2ccc3ncc4c(c3c2)n(-c2cccnc2C)c(=O)n4C)cc1", "note": "[Example 2.4, N-Methyl-4-[3-methyl-1-(2-methyl-pyridin-3-yl)-2-oxo-2,3-dihydro-1H-imidazo[4,5-c]quinolin-8-yl]-benzamide]", "values": [
      {"measurement": "IC50", "setting": "read-out: PI3Kalfa/IC50", "value": 29, "unit": "nM"}
    ]},
    {"compound": "COc1ccc(-n2c(=O)n(C)c3cnc4ccc(-c5cnc(C(OC)OC)c(OC)c5)cc4c32)c(OC)n1", "note": "[Example 8.13, 8-(6-Dimethoxymethyl-5-methoxy-pyridin-3-yl)-1-(2,6-dimethoxy-pyridin-3-yl)-3-methyl-1,3-dihydro-imidazo[4,5-c]quinolin-2-one]", "values": [
      {"measurement": "IC50", "setting": "read-out: EPK_PI3Kalfa/IC50", "value": 247, "unit": "nM"}
    ]},
    {"compound": "COc1cc(-c2ccc3ncc4c(c3c2)n(-c2ccc(N3CCCC3)nc2C)c(=O)n4C)cnc1CO", "note": "[Example 25.4, 8-(6-Hydroxymethyl-5-methoxy-pyridin-3-yl)-3-methyl-1-(2-methyl-6-pyrrolidin-1-yl-pyridin-3-yl)-1,3-dihydro-imidazo[4,5-c]quinolin-2-one]", "values": [
      {"measurement": "IC50", "setting": "read-out: EPK_PI3Kalfa/IC50", "value": 27, "unit": "nM"}
    ]},
    {"compound": "COCc1ncc(-c2ccc3ncc4c(c3c2)n(-c2cccnc2C)c(=O)n4C)cc1OC", "note": "[Example 2.30, 8-(5-Methoxy-6-methoxymethyl-pyridin-3-yl)-3-methyl-1-(2-methyl-pyridin-3-yl)-1,3-dihydro-imidazo[4,5-c]quinolin-2-one]", "values": [
      {"measurement": "IC50", "setting": "read-out: EPK_PI3Kalfa/IC50", "value": 75, "unit": "nM"}
    ]}
  ]
}
